From patent publication US20250263370A1 (Tay Therapeutics Limited, priority 2022, published 2025) come the findings set out here.

The structures appear in SMILES notation. Values after ≈ are worked out from the molar mass of the structure shown. Bounds are passed on as bounds.

Data set [1] in a line: Thermodynamic solubility in FaSSIF pH 6.5 buffer. The class given is physicochemical. The note with it: FaSSIF buffer, 25 °C, pH 6.5, fassif, thermodynamic from solid, Method 1 (UV-vis, 25° C., 24 hrs). As to the method: FaSSIF v2 buffer is freshly prepared prior to use according to the suppliers' instructions and the pH adjusted to 6.5 using 1 M NaOH or 1 M HCl as required. From 1 mM working solution of test compound in DMSO, the λmax of the test compound is determined by scanning from 200 nm to 700 nm, in 1 nm steps with an EPOCH UV/Visible spectrophotometer (Biotek Instruments Inc.). A 12-point standard curve of compound concentration versus absorption at λmax is generated via two-fold serial dilutions of the 1 mM working solution with DMSO. Approximately 1 mg of test compound is accurately weighed into an Eppendorf tube and the appropriate volume of FaSSIF buffer is added to make a nominal concentration of 1 mg/mL. The tube is incubated on a rotator at 20 rpm, 25° C. for 24 hrs. Samples are then filtered using 0.45 μm filters (Sartorious, CAT #1776C) and the filtrate subjected to UV-vis spectroscopy analysis. The absorption at λmax is compared to the standard curve to determine the concentration of compound in solution after 24 hours.
FaSSIF buffer was prepared according to the suppliers' instructions and the pH adjusted to 6.5 using 1 M NaOH or 1 M HCl as required. […] A stir stick was added to each vial and vials sealed with a moulded PTDE/SIL 96-well plate cover. The plate was shaken at 25° C. at 1,100 rpm using an Eppendorf Thermomixer Comfort plate shaker. The plates were filtered using a vacuum manifold and diluted with a mixture of H2O and acetonitrile containing internal standard. The concentration of the test compound in the filtrate was determined by LCMS analysis with reference to the internal standards to determine the solubility in the buffer.

In another data set the target is BRD4 BD1 (Homo sapiens (Human), UniProt O60885). Description: NanoBRET bromodomain assay, NanoLuc-BRD4-BD1 fusion in HEK293 cells. The data set is classed as cell-based. The note with it: top concentration 10 μM. (BRET reads energy transfer from a luciferase to a nearby fluorophore.)
A further data set addresses BRD4 BD2 (Homo sapiens (Human), UniProt O60885). Description: NanoBRET bromodomain assay, NanoLuc-BRD4-BD2 fusion in HEK293 cells.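 For all read-outs here: tracer displacement BRET read in transfected cells after 2 h compound exposure at 37 °C, signal in milliBRET units corrected against no-tracer background wells.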 The note with it: for IC50: BRD4 BD2 (IC50), NanoBRET, HEK293 cells, top concentration 10 μM; for Fold selectivity: IC50 for BRD4 BD1 divided by IC50 for BRD4 BD2, qualitative if an IC50 is at the upper limit.
Data set [2] is described as follows: Intrinsic clearance in liver microsomes, rat. The following applies: rat liver microsomes, Method 1. The class given is in vitro ADME. Summed up: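 Compound at 1 μM (0.1–1% DMSO) incubated at 37 °C with mouse or rat liver microsomes (0.5 mg/mL protein) and 1 mM NADPH in PBS pH 7.4; samples taken up to 60 min and quenched in cold acetonitrile. LC-MS/MS of percent remaining gave half-life and CLint; no-NADPH controls run.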

Data set [3] is described as follows: Intrinsic clearance in liver microsomes, mouse. The note with it: pH 7.4, Method 2, read-out: Half-Life (T1/2) (min), Mouse. The class given is in vitro ADME. As to the method: From stock solution of compound on 10 mM DMSO, a working solution of 0.1 mM is prepared by diluting the compound in DMSO. 6.25 μL of a 20 mg/mL solution of microsomes in PBS pH 7.4 buffer is added to 216.25 μL PBS pH 7.4 buffer (final microsome concentration—0.5 mg/mL). 25 μL of 10 mM solution of NADPH in PBS pH 7.4 buffer is added to the incubations (final NADPH concentration—1 mM). The mixture is pre-warmed to 37° C. for 10 minutes. 2.5 μL of test compound working solution is added (final compound concentration—1 μM with 1% DMSO). Aliquots of 30 μL are taken from the reaction solution at 0.5, 5, 15, 30 and 60 minutes. The reaction was stopped by the addition of 5 volumes of cold acetonitrile with IS (100 nM alprazolam, 200 nM caffeine and 100 nM tolbutamide). Samples were centrifuged at 3, 220 g for 40 minutes. Aliquots of 100 μL of the supernatant are mixed with 100 μL of ultra-pure H2O and used for LC-MS/MS analysis. The percent compound remaining at each time point is calculated with respect to that of the 0.5 min sample. The data are analysed to calculate half-life. Control experiments are run without NADPH and blank samples are prepared using DMSO without the test compound.
A 50 mM stock solution (in DMSO) is prepared for the compound. From the stock solution, a working solution of 0.5 mM is prepared by diluting the compound in DMSO. This concentration of working solution is prepared considering a final concentration of 1 uM with 0.1% DMSO. The compound (1 μL of working solution) is spiked in PBS with pH 7.4 ([…]) at a concentration of 1 μM. Subsequently, 110 μL of 10 mM NADPH is added (as a co-factor). The sample is incubated at 37° C. for 15 min. Following this, pre-warmed liver microsomes (27.5 μL; final protein conc. 0.5 mg/mL) are added. The samples are then incubated at 37° C. Aliquots of samples are withdrawn at 0, 5, 15, 30, 45 and 60 min. The reaction is stopped by using chilled acetonitrile containing internal standard. The samples are centrifuged, and the supernatants analysed by LC-MS/MS. The percent compound remaining at each time point is calculated with respect to that of the 0 min sample. The data are then analysed to calculate half-life and intrinsic clearance (CLint). Control experiments are run without NADPH and blank samples are prepared using DMSO without the test compound.

What is called thermodynamic solubility is the concentration in solution at equilibrium with solid. By IC50 is commonly meant the midpoint of a concentration-inhibition curve. Low readings indicate inhibition by little substance, high ones a need for much substance. In the case of `CNC(=O)c1[nH]c(C(=O)N[C@H]2CC[C@H](OC)CC2)cc1OC(C)c1ccccc1` (single isomer, unassigned) [Example 99, N^5-(trans-4-methoxycyclohexyl)-N^2-methyl-3-(1-phenylethoxy)-1H-pyrrole-2,5-dicarboxamide], in data set [1], the solubility (thermodynamic) at 24 h is 359 µM (≈ 143 µg/mL). In addition, the IC50 at BRD4 BD1 is ≥ 10000 nM. In addition, on BRD4 BD2, the IC50 is 50 to 200 nM; the Fold selectivity result was “XX (Fold >50 and ≤200)”. Besides, the “Half-Life (T1/2) (min), Rat” value in data set [2] is reported as 39 min.

`CNC(=O)c1[nH]c(C(=O)NC(C)C)cc1O[C@@H](C)c1ccccc1` [Example 105, (S)—N^5-isopropyl-N^2-methyl-3-(1-phenylethoxy)-1H-pyrrole-2,5-dicarboxamide]: the IC50 against BRD4 BD1 was ≥ 10000 nM; against BRD4 BD2, 200 to 1000 nM. In addition, in data set [3], the half-life at 1 μM is > 60 min. The Fold selectivity entry at BRD4 BD2 is “X (Fold >2 and ≤50)”.

As to `CNC(=O)c1[nH]c(C(=O)NC2CC2)cc1O[C@@H](C)c1ccccc1` [Example 106, (S)—N^5-cyclopropyl-N^2-methyl-3-(1-phenylethoxy)-1H-pyrrole-2,5-dicarboxamide], on BRD4 BD1, the IC50 is ≥ 10000 nM. In data set [3], the half-life at 1 μM is > 60 min. Moreover, on BRD4 BD2, the IC50 fell in the range of 50 to 200 nM; the Fold selectivity entry is “XX (Fold >50 and ≤200)”.

As for `CNC(=O)c1[nH]c(C(=O)NC2COC2)cc1O[C@@H](C)c1ccccc1` [Example 107, (S)—N^2-methyl-N^5-(oxetan-3-yl)-3-(1-phenylethoxy)-1H-pyrrole-2,5-dicarboxamide], the 50% inhibitory concentration (IC50) against BRD4 BD1 is ≥ 10000 nM. In addition, in data set [3], the half-life at 1 μM was > 60 min. On BRD4 BD2, the IC50 fell in the range of 50 to 200 nM; the Fold selectivity result is “XX (Fold >50 and ≤200)”.

For the molecule `CNC(=O)c1[nH]c(C(=O)N[C@H]2C[C@H](O)C2)cc1O[C@@H](C)c1ccccc1` [Example 108, N^5-(trans-3-hydroxycyclobutyl)-N^2-methyl-3-((S)-1-phenylethoxy)-1H-pyrrole-2,5-dicarboxamide], the IC50 at BRD4 BD1 is ≥ 10000 nM. The half-life at 1 μM in data set [3] is > 60 min. Further, on BRD4 BD2, the IC50 was 50 to 200 nM; the Fold selectivity result was “XX (Fold >50 and ≤200)”.

In the case of `CNC(=O)c1[nH]c(C(=O)NC2CC(F)(F)C2)cc1O[C@@H](C)c1ccccc1` [Example 109, (S)—N^5-(3,3-difluorocyclobutyl)-N^2-methyl-3-(1-phenylethoxy)-1H-pyrrole-2,5-dicarboxamide], the IC50 against BRD4 BD1 was ≥ 10000 nM. In addition, the half-life at 1 μM in data set [3] was > 60 min. Also, on BRD4 BD2, the IC50 lay in the range of 200 to 1000 nM; the Fold selectivity entry is “X (Fold >2 and ≤50)”.

Turning to `CNC(=O)c1[nH]c(C(=O)N[C@H]2CCC(F)(F)C2)cc1O[C@@H](C)c1ccccc1` [Example 110, N^5-((S)-3,3-difluorocyclopentyl)-N^2-methyl-3-((S)-1-phenylethoxy)-1H-pyrrole-2,5-dicarboxamide], the half-maximal inhibitory concentration (IC50) against BRD4 BD1 was ≥ 10000 nM. Also, in data set [3], the half-life at 1 μM was > 60 min. Moreover, on BRD4 BD2, the IC50 lay within 200 to 1000 nM; the Fold selectivity entry was “X (Fold >2 and ≤50)”.

For `CNC(=O)c1[nH]c(C(=O)N[C@@H]2CCC(F)(F)C2)cc1O[C@@H](C)c1ccccc1` [Example 111, N^5-((R)-3,3-difluorocyclopentyl)-N^2-methyl-3-((S)-1-phenylethoxy)-1H-pyrrole-2,5-dicarboxamide], the figures for the IC50 against BRD4 BD1 and against BRD4 BD2 were ≥ 10000 nM and 200 to 1000 nM, respectively. Moreover, the half-life at 1 μM in data set [3] is > 60 min. Further, the Fold selectivity entry on BRD4 BD2 was “X (Fold >2 and ≤50)”.

As to `CNC(=O)c1[nH]c(C(=O)NCCC(F)(F)F)cc1O[C@@H](C)c1ccccc1` [Example 112, (S)—N^2-methyl-3-(1-phenylethoxy)-N^5-(3,3,3-trifluoropropyl)-1H-pyrrole-2,5-dicarboxamide], the IC50 was ≥ 10000 nM at BRD4 BD1 and 200 to 1000 nM on BRD4 BD2. In addition, in data set [3], the half-life at 1 μM was > 60 min. Moreover, at BRD4 BD2, the Fold selectivity result was “X (Fold >2 and ≤50)”.

For the molecule `CNC(=O)c1[nH]c(C(=O)N[C@H]2CCOC2)cc1O[C@@H](C)c1ccccc1` [Example 113, N^2-methyl-3-((S)-1-phenylethoxy)-N^5-((S)-tetrahydrofuran-3-yl)-1H-pyrrole-2,5-dicarboxamide], the IC50 was ≥ 10000 nM against BRD4 BD1 and 200 to 1000 nM against BRD4 BD2. In addition, the half-life at 1 μM in data set [3] was > 60 min. For the same molecule, at BRD4 BD2, the Fold selectivity result was “X (Fold >2 and ≤50)”.

Take `CNC(=O)c1[nH]c(C(=O)N[C@@H]2CCOC2)cc1O[C@@H](C)c1ccccc1` [Example 114, N^2-methyl-3-((S)-1-phenylethoxy)-N^5-((R)-tetrahydrofuran-3-yl)-1H-pyrrole-2,5-dicarboxamide]: on BRD4 BD1, the IC50 is ≥ 10000 nM. Besides, the half-life at 1 μM in data set [3] was > 60 min. On BRD4 BD2, the half-inhibitory concentration (IC50) was in the range of 200 to 1000 nM; the Fold selectivity result was “X (Fold >2 and ≤50)”.

Turning to `CNC(=O)c1[nH]c(C(=O)N[C@H]2CC[C@H](O)C2)cc1O[C@@H](C)c1ccccc1` [Example 115, N^5-((1S,3S)-3-hydroxycyclopentyl)-N^2-methyl-3-((S)-1-phenylethoxy)-1H-pyrrole-2,5-dicarboxamide], the IC50 was ≥ 10000 nM against BRD4 BD1 and 50 to 200 nM on BRD4 BD2. Moreover, the half-life at 1 μM in data set [3] was > 60 min. Further, the Fold selectivity result at BRD4 BD2 is “XX (Fold >50 and ≤200)”.

For `CNC(=O)c1[nH]c(C(=O)NC23CC(C2)C3)cc1O[C@@H](C)c1ccccc1` [Example 117, (S)—N^5-(bicyclo [1.1.1]pentan-1-yl)-N^2-methyl-3-(1-phenylethoxy)-1H-pyrrole-2,5-dicarboxamide], the values for the IC50 at BRD4 BD1 and against BRD4 BD2 were ≥ 10000 nM and 50 to 200 nM, respectively. Besides, the half-life at 1 μM in data set [3] is > 60 min. Besides, the Fold selectivity result at BRD4 BD2 was “XX (Fold >50 and ≤200)”.

On to `CNC(=O)c1[nH]c(C(=O)NC23CC(O)(C2)C3)cc1O[C@@H](C)c1ccccc1` [Example 118, (S)—N^5-(3-hydroxybicyclo [1.1.1]pentan-1-yl)-N^2-methyl-3-(1-phenylethoxy)-1H-pyrrole-2,5-dicarboxamide], for which the concentration for half-maximal inhibition (IC50) on BRD4 BD1 was ≥ 10000 nM. The half-life at 1 μM in data set [3] was > 60 min. Besides, on BRD4 BD2, the IC50 lay in the range of 50 to 200 nM; the Fold selectivity entry is “XX (Fold >50 and ≤200)”.
